Laboratory results from paper PMC9897788, “Design, synthesis and cytotoxic evaluation of novel bis-thiazole derivatives as preferential Pim1 kinase inhibitors with in vivo and in silico study” (Journal of Enzyme Inhibition and Medicinal Chemistry, 2023).

Experiments:
Test in all cases: NCI 60 cell one-dose screening (SRB)
Type in all cases: cell-based
SK-OV-3 = conditions: Homo sapiens; SK-OV-3, Ovarian Cancer; single dose 10 µM, 48 h; read-out: Percentage of cellular growth inhibition
Method: (§1) The 60 cancerous cell panel screening was performed following the Developmental Therapeutics Program (DTP) of the National Cancer Institute (NIH-NCI), USA. A single dose of 10 µM was used to perform the screening at 48 h incubation and the results were achieved as cancerous cell growth percentage relative to the no-drug control that was converted to an inhibition percentage by subtracting from 100.The cancerous cell lines were grown in RPMI 1640 medium containing 5% foetal bovine serum and 2 mM L-glutamine at 37 °C, 5% CO2, 95% air and 100% relative humidity for 24 h prior to addition of the tested compounds. After 24 h, two plates of each cell line were fixed in situ with TCA to represent a measurement of the cell population for each cell line at the time of drug addition (Tz). Compounds were dissolved in DMSO at 400-fold the desired final maximum test concentration and stored frozen prior to use. At the time of drug addition, an aliquot of frozen concentrate was thawed and diluted to twice the desired final maximum test concentration with complete medium containing 50 µg/mL gentamicin. Aliquots of 100 µL of the compounds dilution was added to the appropriate micro titre wells already containing 100 µL of medium, resulting in the required final drug concentrations of 10 µM. Following compounds addition, the plates were incubated for an additional 48 h at 37 °C, 5% CO2, 95% air, and 100% relative humidity. For adherent cells, the assay was terminated by the addition of cold TCA. Cells were fixed in situ by the gentle addition of 50 µL of cold 50% (w/v) TCA (final concentration, 10% TCA) and incubated for 60 min at 4 °C. The supernatant was discarded, and the plates were washed five times with tap water and air dried. Sulphorhodamine B (SRB) solution (100 µL) at 0.4% (w/v) in 1% acetic acid is added to each well, and plates are incubated for 10 min at room temperature. After staining, unbound dye was removed by washing five times with 1% acetic acid and the plates were air dried. Bound stain was subsequently solubilised with 10 mM trizma base, and the absorbance was read on an automated plate reader at a wavelength of 515 nm. For suspension cells, the methodology was the same except that the assay was terminated by fixing settled cells at the bottom of the wells by gently adding 50 µL of 80% TCA (final concentration, 16% TCA). Using the seven absorbance measurements [time zero, (Tz), control growth, I, and test growth in the presence of drug at the five concentration levels (Ti)], the percentage growth was calculated as: [(Ti−Tz)/(C−Tz)]×100 for concentrations for which Ti>/=Tz [(Ti−Tz)/Tz]×100 for concentrations for which Ti<Tz.

OVCAR-4 = conditions: Homo sapiens; OVCAR-4, Ovarian Cancer; single dose 10 µM, 48 h; read-out: Percentage of cellular growth inhibition
Method: as §1

NCI-H460 = conditions: Homo sapiens; NCI-H460, Non-Small Cell Lung Cancer; single dose 10 µM, 48 h; read-out: Percentage of cellular growth inhibition
Method: as §1

HS 578T = conditions: Homo sapiens, Breast Cancer, single dose 10 µM, 48 h, read-out: Percentage of cellular growth inhibition
Method: as §1

SF-539 = conditions: Homo sapiens; SF-539, CNS Cancer; single dose 10 µM, 48 h; read-out: Percentage of cellular growth inhibition
Method: as §1

HCC-2998 = conditions: Homo sapiens; HCC-2998, Colon Cancer; single dose 10 µM, 48 h; read-out: Percentage of cellular growth inhibition
Method: as §1

ACHN = conditions: Homo sapiens, Renal Cancer, single dose 10 µM, 48 h, read-out: Percentage of cellular growth inhibition
Method: as §1

CCRF-CEM = conditions: Homo sapiens, Leukemia, single dose 10 µM, 48 h, read-out: Percentage of cellular growth inhibition
Method: as §1

MDA-MB-468 = conditions: Homo sapiens; MDA-MB-468, Breast Cancer; single dose 10 µM, 48 h; read-out: Percentage of cellular growth inhibition
Method: as §1

A498 = conditions: Homo sapiens; A498, Renal Cancer; single dose 10 µM, 48 h; read-out: Percentage of cellular growth inhibition
Method: as §1

SK-MEL-28 = conditions: Homo sapiens; SK-MEL-28, Melanoma; single dose 10 µM, 48 h; read-out: Percentage of cellular growth inhibition
Method: as §1

UACC-257 = conditions: Homo sapiens; UACC-257, Melanoma; single dose 10 µM, 48 h; read-out: Percentage of cellular growth inhibition
Method: as §1

MDA-MB-435 = conditions: Homo sapiens; MDA-MB-435, Melanoma; single dose 10 µM, 48 h; read-out: Percentage of cellular growth inhibition
Method: as §1

M14 = conditions: Homo sapiens; M14, Melanoma; single dose 10 µM, 48 h; read-out: Percentage of cellular growth inhibition
Method: as §1

BT-549 = conditions: Homo sapiens; BT-549, Breast Cancer; single dose 10 µM, 48 h; read-out: Percentage of cellular growth inhibition
Method: as §1

SN12C = conditions: Homo sapiens, Renal Cancer, single dose 10 µM, 48 h, read-out: Percentage of cellular growth inhibition
Method: as §1

HT29 = conditions: Homo sapiens, HT-29; HT29, Colon Cancer; single dose 10 µM, 48 h; read-out: Percentage of cellular growth inhibition
Method: as §1

EKVX = conditions: Homo sapiens, Non-Small Cell Lung Cancer, single dose 10 µM, 48 h, read-out: Percentage of cellular growth inhibition
Method: as §1

MOLT-4 = conditions: Homo sapiens; MOLT-4, Leukemia; single dose 10 µM, 48 h; read-out: Percentage of cellular growth inhibition
Method: as §1

SW-620 = conditions: Homo sapiens; SW-620, Colon Cancer; single dose 10 µM, 48 h; read-out: Percentage of cellular growth inhibition
Method: as §1

SF-268 = conditions: Homo sapiens; SF-268, CNS Cancer; single dose 10 µM, 48 h; read-out: Percentage of cellular growth inhibition
Method: as §1

Compound	inhibition at 10 µM (SK-OV-3) [%]	inhibition at 10 µM (OVCAR-4) [%]	inhibition at 10 µM (NCI-H460) [%]	inhibition at 10 µM (HS 578T) [%]	inhibition at 10 µM (SF-539) [%]	inhibition at 10 µM (HCC-2998) [%]	inhibition at 10 µM (ACHN) [%]	inhibition at 10 µM (CCRF-CEM) [%]	inhibition at 10 µM (MDA-MB-468) [%]	inhibition at 10 µM (A498) [%]	inhibition at 10 µM (SK-MEL-28) [%]	inhibition at 10 µM (UACC-257) [%]	inhibition at 10 µM (MDA-MB-435) [%]	inhibition at 10 µM (M14) [%]	inhibition at 10 µM (BT-549) [%]	inhibition at 10 µM (SN12C) [%]	inhibition at 10 µM (HT29) [%]	inhibition at 10 µM (EKVX) [%]	inhibition at 10 µM (MOLT-4) [%]	inhibition at 10 µM (SW-620) [%]	also measured
CCOc1ccc(/N=N/c2sc(Nc3cccc(Nc4nc(C)c(/N=N/c5ccc(OCC)cc5)s4)c3)nc2C)cc1 [5b, N^1,N^3-bis(5-((4-ethoxyphenyl)diazinyl)-4-methylthiazol-2-yl)benzene-1,3-diamine]	1.1	0.1	-6.8	2.2	0.1	-4.6	1.1	-13.9	4.3	13.5	2.5	-9.2	1.6	-7	-3.7	4.7	0.2	6.5	-2.2	-0.3	inhibition at 10 µM (SF-268): 4.5%
c1ccc(-c2csc(Nc3cccc(Nc4nc(-c5ccccc5)cs4)c3)n2)cc1 [6a, N^1,N^3-bis(4-phenylthiazol-2-yl)benzene-1,3-diamine]	2.5	62.4	73.1	43.5	42.3	64.5	63.8	61.4	60.8	14.5	39.1	53.9	55.3	52.2	68.3	56.6	60.6	62.3	86.3	33.8	inhibition at 10 µM (SF-268): 59.4%
Fc1ccc(-c2csc(Nc3cccc(Nc4nc(-c5ccc(F)cc5)cs4)c3)n2)cc1 [6b, N^1,N^3-bis(4–(4-fluorophenyl)thiazol-2-yl)benzene-1,3-diamine]	13.2	44.3	59.6	30.7	29.1	64.8	48.2	40.9	61.4	21.7	23.6	25.4	36.9	33.2	36	52.8	37.7	60.2	53.6	29.7	inhibition at 10 µM (SF-268): 42.1%
Clc1ccc(-c2csc(Nc3cccc(Nc4nc(-c5ccc(Cl)cc5)cs4)c3)n2)cc1 [6c, N^1,N^3-bis(4–(4-chlorophenyl)thiazol-2-yl)benzene-1,3-diamine]	8.3	8.4	-2.1	29.5	13.9	-10.9	14.3	10.4	13.4	9.8	-4.2	-20.4	-7.1	29.3	-6.1	1	-10.5	12.4	25.4	0.4	inhibition at 10 µM (SF-268): 22.6%
c1ccc(/N=c2\scc(-c3ccccc3)n2-c2cccc(-n3c(-c4ccccc4)cs/c3=N\c3ccccc3)c2)cc1 [8a, N,N’-(3,3’-(1,3-phenylene)bis(4-phenylthiazole-3(3H)-yl-2(3H)-ylidene))dianiline]	-34.8	5.3	-6.3	4.2	-7.1	-22.2	3	-0.9	9	-18.1	-3.6	-11.8	1	-14.3	-31.8	3.9	-3.1	5.3	-5.5	-0.4	inhibition at 10 µM (SF-268): 0.3%
Fc1ccc(-c2cs/c(=N\c3ccccc3)n2-c2cccc(-n3c(-c4ccc(F)cc4)cs/c3=N\c3ccccc3)c2)cc1 [8b, N,N’-(3,3’-(1,3-phenylene)bis(4–(4-fluorophenyl)thiazole-3(3H)-yl-2(3H)-ylidene))dianiline]	-15.4	34.7	37.5	13.4	-0.9	12.1	2.3	35.2	51.2	-6.4	1.7	-7	13.1	0.4	-4.1	7.5	9.9	19.5	50.1	45.1	inhibition at 10 µM (SF-268): 8.7%
